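These data come from cells grown in 96-well plates and exposed to compound for 48 hours at five concentrations. TGI denotes the concentration required for complete inhibition of growth.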
Columns and labels:
Test in all cases: NCI-60 cell line screen, 48 h
SF-295 CNS = tested on: SF-295 CNS
MCF7 breast = tested on: MCF7 breast
PC-3 prostate = tested on: PC-3 prostate
786-0 renal = tested on: 786-0 renal
LOX IMVI melanoma = tested on: LOX IMVI melanoma
DU-145 prostate = tested on: DU-145 prostate
SK-MEL-28 melanoma = tested on: SK-MEL-28 melanoma
ACHN renal = tested on: ACHN renal
SW-620 colon = tested on: SW-620 colon
RPMI-8226 leukemia = tested on: RPMI-8226 leukemia

For c1coc(-c2nccc3c2[nH]c2ccccc23)c1, the TGI (SF-295 CNS) was > 100 µM, the TGI (MCF7 breast) was > 100 µM and the TGI (PC-3 prostate) was > 100 µM. For the same compound, the TGI (786-0 renal) was > 100 µM, the TGI (LOX IMVI melanoma) was > 100 µM and the TGI (DU-145 prostate) was > 100 µM. For the same compound, the TGI (SK-MEL-28 melanoma) was > 100 µM, the TGI (ACHN renal) was > 100 µM and the TGI (SW-620 colon) was > 100 µM.
With O=C(c1ccccc1)N1CCN(C(=S)NC2CCCCC2)C1=S the TGI (SF-295 CNS) was 54.4 µM, the TGI (MCF7 breast) was 48.2 µM and the TGI (786-0 renal) was 52.2 µM. It also gave a TGI (LOX IMVI melanoma) of 31.1 µM, a TGI (DU-145 prostate) of 57.9 µM and a TGI (SK-MEL-28 melanoma) of 31.2 µM. It also gave a TGI (ACHN renal) of 58 µM and a TGI (SW-620 colon) of 55.6 µM.
O=c1ccc2ccc(CBr)cc2o1 was tested, and the TGI (SF-295 CNS) was 28.7 µM, the TGI (MCF7 breast) was 3.87 µM and the TGI (PC-3 prostate) was > 100 µM. The TGI (LOX IMVI melanoma) was 3.01 µM, the TGI (DU-145 prostate) was 30.8 µM and the TGI (SK-MEL-28 melanoma) was 26.6 µM. For the same compound, the TGI (SW-620 colon) was 3.2 µM.
With CCn1c2nc(=O)n(CCCCCCCCSC(c3ccccc3)(c3ccccc3)c3ccccc3)c(=O)c-2nc2ccccc21 the TGI (SF-295 CNS) was > 100 µM, the TGI (MCF7 breast) was > 100 µM and the TGI (PC-3 prostate) was > 100 µM. For the same compound, the TGI (786-0 renal) was > 100 µM, the TGI (RPMI-8226 leukemia) was > 100 µM and the TGI (LOX IMVI melanoma) was > 100 µM. The TGI (DU-145 prostate) was > 100 µM, the TGI (SK-MEL-28 melanoma) was > 100 µM and the TGI (ACHN renal) was 60.8 µM. The TGI (SW-620 colon) was > 100 µM.
With Cn1cnc(N2CCCC2)c(C#N)c1=S the TGI (SF-295 CNS) was > 100 µM, the TGI (MCF7 breast) was > 100 µM and the TGI (PC-3 prostate) was > 100 µM. The TGI (786-0 renal) was > 100 µM, the TGI (RPMI-8226 leukemia) was > 100 µM and the TGI (LOX IMVI melanoma) was > 100 µM. The TGI (DU-145 prostate) was > 100 µM, the TGI (SK-MEL-28 melanoma) was > 100 µM and the TGI (ACHN renal) was > 100 µM. The TGI (SW-620 colon) was > 100 µM.
In the case of COc1cccc2c1C(=O)c1c(O)c3c(c(O)c1C2=O)C[C@@](O)(C(C)=O)CC3S(=O)(=O)O (some centres not stated), the TGI (SF-295 CNS) is reported as > 100 µM, the TGI (786-0 renal) is reported as > 100 µM and the TGI (RPMI-8226 leukemia) is reported as > 100 µM. For the same compound, the TGI (LOX IMVI melanoma) was > 100 µM, the TGI (SK-MEL-28 melanoma) was > 100 µM and the TGI (ACHN renal) was > 100 µM. The TGI (SW-620 colon) was > 100 µM.
With CN(C)Cc1c(O)ccc2c1c1c(n2C)C(=O)c2ccccc2C1=O the TGI (SF-295 CNS) was 84.6 µM, the TGI (MCF7 breast) was > 100 µM and the TGI (PC-3 prostate) was 32.7 µM. For the same compound, the TGI (786-0 renal) was > 100 µM, the TGI (RPMI-8226 leukemia) was > 100 µM and the TGI (LOX IMVI melanoma) was 18.6 µM. The TGI (DU-145 prostate) was > 100 µM, the TGI (SK-MEL-28 melanoma) was 20 µM and the TGI (ACHN renal) was > 100 µM. For the same compound, the TGI (SW-620 colon) was > 100 µM.
For Cc1c(C(=O)O)n2c(=S)[nH]nc2c2ccccc12, the TGI (SF-295 CNS) was > 100 µM, the TGI (MCF7 breast) was > 100 µM and the TGI (PC-3 prostate) was > 100 µM. For the same compound, the TGI (786-0 renal) was > 100 µM, the TGI (RPMI-8226 leukemia) was > 100 µM and the TGI (LOX IMVI melanoma) was > 100 µM. For the same compound, the TGI (DU-145 prostate) was > 100 µM, the TGI (SK-MEL-28 melanoma) was > 100 µM and the TGI (ACHN renal) was > 100 µM. The TGI (SW-620 colon) was > 100 µM.
For CCOC(=O)/C=C/C(=O)O/C=C/[N+](=O)[O-], the TGI (SF-295 CNS) was > 100 µM, the TGI (MCF7 breast) was > 100 µM and the TGI (786-0 renal) was > 100 µM. For the same compound, the TGI (RPMI-8226 leukemia) was > 100 µM, the TGI (LOX IMVI melanoma) was > 100 µM and the TGI (DU-145 prostate) was > 100 µM. For the same compound, the TGI (ACHN renal) was > 100 µM and the TGI (SW-620 colon) was > 100 µM.
In the case of Cn1c(-c2ccc[se]2)ccc1-c1ccc(C=O)[se]1, the TGI (SF-295 CNS) is reported as 58.8 µM, the TGI (PC-3 prostate) is reported as > 100 µM and the TGI (786-0 renal) is reported as > 100 µM. For the same compound, the TGI (RPMI-8226 leukemia) was > 70.2 µM, the TGI (LOX IMVI melanoma) was 30.1 µM and the TGI (DU-145 prostate) was > 100 µM. For the same compound, the TGI (SK-MEL-28 melanoma) was > 100 µM, the TGI (ACHN renal) was > 100 µM and the TGI (SW-620 colon) was > 51.6 µM.
CCOP(=O)(CCCC(O)CNc1nc(N)nc(Cl)c1N=Nc1ccc(Cl)cc1)OCC (configuration not stated) gave a TGI (SF-295 CNS) of 21.7 µM, a TGI (MCF7 breast) of 27 µM and a TGI (PC-3 prostate) of 16.7 µM. It also gave a TGI (786-0 renal) of 17.9 µM, a TGI (RPMI-8226 leukemia) of 8.23 µM and a TGI (LOX IMVI melanoma) of 13.8 µM. The TGI (DU-145 prostate) was 18.2 µM, the TGI (SK-MEL-28 melanoma) was 20.8 µM and the TGI (ACHN renal) was 15.4 µM. It also gave a TGI (SW-620 colon) of 36.5 µM.
Cc1ccc(Cc2cc(N3CCN(c4cccc(Cl)c4)CC3)nnc2C)cc1 was tested, and the TGI (SF-295 CNS) was > 100 µM, the TGI (MCF7 breast) was > 100 µM and the TGI (PC-3 prostate) was > 100 µM. For the same compound, the TGI (786-0 renal) was > 100 µM, the TGI (RPMI-8226 leukemia) was > 100 µM and the TGI (DU-145 prostate) was > 100 µM. For the same compound, the TGI (SK-MEL-28 melanoma) was > 100 µM, the TGI (ACHN renal) was > 100 µM and the TGI (SW-620 colon) was > 100 µM.

— PubChem BioAssay (NCI)
